In one test the target is T1, FGFR1 (Homo sapiens, UniProt P11362).
T1 construct: made in house; host or cells: E. coli (BL21-derived), T7 phage
Description: Kinase binding assay (kinase-tagged T7 phage, affinity beads, qPCR), Kd. The following applies: read-out: FGFR1 (Kd nM). The protocol:
(§1) Kinase-tagged T7 phage strains were prepared in an E. coli host derived from the BL21 strain. E. coli were grown to log-phase and infected with T7 phage and incubated with shaking at 32° C. until lysis. The lysates were centrifuged and filtered to remove cell debris. Streptavidin-coated magnetic beads were treated with biotinylated small molecule ligands for 30 minutes at room temperature to generate affinity resins for kinase assays. The liganded beads were blocked with excess biotin and washed with blocking buffer SeaBlock (Pierce), 1% BSA, 0.05% Tween 20, 1 mM DTT to remove unbound ligand and to reduce non-specific binding.
(§2) Test compounds were prepared as 111× stocks in 100% DMSO. Kds were determined using an 11-point 3-fold compound dilution series with three DMSO control points. […] The compounds were then diluted directly into the assays such that the final concentration of DMSO was 0.9%. All reactions performed in polypropylene 384-well plate. Each was a final volume of 0.02 ml. […] The kinase concentration in the eluates was measured by qPCR.
(§3) Binding constants were calculated with a standard dose-response curve using the Hill equation: […]
(§4) The Hill Slope was set to −1. Curves were fitted using a non-linear least square fit with the Levenberg-Marquardt algorithm.
Background: In qPCR the cycle at which signal appears reflects the starting amount.

The target in a further test is T2, FGFR3 (Homo sapiens, UniProt P22607).
T2 construct: made in house; host or cells: E. coli (BL21-derived), T7 phage
T2 sequence (P22607 23-806): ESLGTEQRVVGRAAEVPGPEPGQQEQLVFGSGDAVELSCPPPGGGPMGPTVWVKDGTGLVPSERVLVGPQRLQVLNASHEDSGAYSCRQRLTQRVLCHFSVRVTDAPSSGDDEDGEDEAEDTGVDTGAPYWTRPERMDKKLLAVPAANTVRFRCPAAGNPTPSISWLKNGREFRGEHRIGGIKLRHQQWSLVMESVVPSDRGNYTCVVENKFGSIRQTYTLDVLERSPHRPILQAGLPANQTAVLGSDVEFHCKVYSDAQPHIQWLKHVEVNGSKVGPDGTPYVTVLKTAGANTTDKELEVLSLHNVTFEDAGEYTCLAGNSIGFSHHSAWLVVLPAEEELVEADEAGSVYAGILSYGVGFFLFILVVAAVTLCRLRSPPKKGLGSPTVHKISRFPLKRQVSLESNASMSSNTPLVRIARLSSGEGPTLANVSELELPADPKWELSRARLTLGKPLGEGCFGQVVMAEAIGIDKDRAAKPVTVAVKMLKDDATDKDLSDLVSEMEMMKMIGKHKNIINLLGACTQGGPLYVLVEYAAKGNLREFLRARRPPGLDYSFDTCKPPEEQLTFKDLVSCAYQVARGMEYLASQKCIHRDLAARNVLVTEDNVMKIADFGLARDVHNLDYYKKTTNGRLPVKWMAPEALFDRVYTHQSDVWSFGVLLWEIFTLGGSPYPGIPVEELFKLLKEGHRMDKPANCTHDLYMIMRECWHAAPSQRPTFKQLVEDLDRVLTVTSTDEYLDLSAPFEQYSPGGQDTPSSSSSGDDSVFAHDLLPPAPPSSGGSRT
The test is described as above. The note with it: read-out: FGFR3 (Kd nM). The protocol:
as §1, §2, §3, §4

[1] abbreviates: kinase binding assay, 11-point 3-fold dilution series.

Structures are written as SMILES. Where two headings read alike, the source gives them in different places.

T1 sequence (P11362 22-822): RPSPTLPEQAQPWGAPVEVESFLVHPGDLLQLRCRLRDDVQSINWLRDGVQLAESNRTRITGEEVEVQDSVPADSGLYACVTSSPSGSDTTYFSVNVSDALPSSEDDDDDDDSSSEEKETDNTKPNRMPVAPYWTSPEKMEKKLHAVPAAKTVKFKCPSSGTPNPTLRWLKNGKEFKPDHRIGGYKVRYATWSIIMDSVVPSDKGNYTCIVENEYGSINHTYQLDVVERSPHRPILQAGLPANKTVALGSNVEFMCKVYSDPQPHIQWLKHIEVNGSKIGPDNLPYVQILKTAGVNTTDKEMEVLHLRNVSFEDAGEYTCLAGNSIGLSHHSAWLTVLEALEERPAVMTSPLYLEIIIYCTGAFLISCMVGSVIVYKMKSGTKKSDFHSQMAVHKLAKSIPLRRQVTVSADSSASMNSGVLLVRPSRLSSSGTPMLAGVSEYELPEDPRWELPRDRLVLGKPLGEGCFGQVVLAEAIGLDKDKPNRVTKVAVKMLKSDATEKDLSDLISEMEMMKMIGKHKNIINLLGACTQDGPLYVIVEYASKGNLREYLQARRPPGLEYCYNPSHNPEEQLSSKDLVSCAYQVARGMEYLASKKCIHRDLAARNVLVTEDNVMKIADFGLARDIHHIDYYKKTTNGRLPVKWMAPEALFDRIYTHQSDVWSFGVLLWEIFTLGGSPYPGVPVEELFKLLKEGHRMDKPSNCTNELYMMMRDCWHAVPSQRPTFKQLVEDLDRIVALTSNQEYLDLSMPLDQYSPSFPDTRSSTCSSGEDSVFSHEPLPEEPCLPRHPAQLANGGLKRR

As usually defined, the Kd is the concentration at which binding is half-saturated. Take `C[C@@H](Oc1ccc2[nH]nc(-c3ccc(N4CC(C)(NCCC#N)C4)nn3)c2c1)c1c(Cl)cncc1Cl` [Example 313, (R)-3-((1-(6-(5-(1-(3,5-dichloropyridin-4-yl)ethoxy)-1H-indazol-3-yl)pyridazin-3-yl)-3-methylazetidin-3-yl)amino)propane-nitrile]: the Kd at FGFR1 and on FGFR3 was 1 to 50 nM in each case.
On to `C[C@@H](Oc1ccc2[nH]nc(-c3cnc(N4CCC(C)(N)CC4)c(F)c3)c2c1)c1c(Cl)cncc1Cl` [Example 401], for which the Kd at FGFR1 (setting [1]) and at FGFR3 (setting [1]) was 1 to 50 nM throughout.
For the molecule `C[C@@H](Oc1ccc2[nH]nc(-c3cnc(N4CC(N)(C(=O)N(C)C)C4)c(F)c3)c2c1)c1c(Cl)cncc1Cl` [Example 293, (R)-3-amino-1-(5-(5-(1-(3,5-dichloropyridin-4-yl)ethoxy)-1H-indazol-3-yl)-3-fluoropyridin-2-yl)-N,N-dimethylazetidine-3-carboxamide], the Kd on FGFR1 and at FGFR3 was 1 to 50 nM throughout.
`C[C@@H](O)CC1(N)CN(c2ncc(-c3n[nH]c4ccc(O[C@H](C)c5c(Cl)cncc5Cl)cc34)cc2F)C1` [Example 385, (R)-1-(3-amino-1-(5-(5-((R)-1-(3,5-dichloropyridin-4-yl)ethoxy)-1H-indazol-3-yl)-3-fluoropyridin-2-yl)azetidin-3-yl)propan-2-ol]: the Kd on FGFR1 (setting [1]) and on FGFR3 (setting [1]) was 1 to 50 nM in each case.
With `C[C@@H](Oc1ccc2[nH]nc(-c3ccc(N4CC[C@@](N)(Cc5ccn(C)n5)C4)nn3)c2c1)c1c(Cl)cncc1Cl` [Example 427, (R)-1-(6-(5-((R)-1-(3,5-dichloropyridin-4-yl)ethoxy)-1H-indazol-3-yl)pyridazin-3-yl)-3-((1-methyl-1H-pyrazol-3-yl)methyl)pyrrolidin-3-amine], the Kd on FGFR1 (setting [1]) and on FGFR3 (setting [1]) was 1 to 50 nM each time.
For `CC[C@]1(N)CCN(c2ccc(-c3n[nH]c4ccc(O[C@H](C)c5c(Cl)cncc5Cl)cc34)nn2)C1` [Example 403, (S)-1-(6-(5-((R)-1-(3,5-dichloropyridin-4-yl)ethoxy)-1H-indazol-3-yl)pyridazin-3-yl)-3-ethylpyrrolidin-3-amine], the Kd at FGFR1 (setting [1]) and at FGFR3 (setting [1]) was 1 to 50 nM each time.
For the molecule `C[C@H](O)CC1(N)CN(c2ccc(-c3n[nH]c4ccc(O[C@H](C)c5c(Cl)cncc5Cl)cc34)nn2)C1` [Example 373, (S)-1-(3-amino-1-(6-(5-((R)-1-(3,5-dichloropyridin-4-yl)ethoxy)-1H-indazol-3-yl)pyridazin-3-yl)azetidin-3-yl)propan-2-ol], the Kd at FGFR1 and at FGFR3 was 1 to 50 nM throughout.
With `C[C@@H](Oc1ccc2[nH]nc(-c3ccc(N4CC(N)(CCO)C4)nc3)c2c1)c1c(Cl)cncc1Cl` [Example 279, (R)-2-(3-amino-1-(5-(5-(1-(3,5-dichloropyridin-4-yl)ethoxy)-1H-indazol-3-yl)pyridin-2-yl)azetidin-3-yl)ethanol], the Kd on FGFR1 and at FGFR3 was 1 to 50 nM each time.
In the case of `C[C@@H](Oc1ccc2[nH]nc(-c3ccc(N4CC(C)(NCC(F)F)C4)nn3)c2c1)c1c(Cl)cncc1Cl` [Example 312, (R)-1-(6-(5-(1-(3,5-dichloropyridin-4-yl)ethoxy)-1H-indazol-3-yl)pyridazin-3-yl)-N-(2,2-difluoroethyl)-3-methylazetidin-3-amine], the Kd on FGFR1 and on FGFR3 was 1 to 50 nM in each case.
Regarding `CCCC1(N)CN(c2ncc(-c3n[nH]c4ccc(O[C@H](C)c5c(Cl)cncc5Cl)cc34)cc2F)C1` [Example 265, (R)-1-(5-(5-(1-(3,5-dichloropyridin-4-yl)ethoxy)-1H-indazol-3-yl)-3-fluoropyridin-2-yl)-3-propylazetidin-3-amine], the Kd at FGFR1 and at FGFR3 was 1 to 50 nM throughout.
Turning to `C[C@@H](Oc1ccc2[nH]nc(-c3cnc(N4CC(N)(CS(C)(=O)=O)C4)c(F)c3)c2c1)c1c(Cl)cncc1Cl` [Example 412, 1-[5-[5-[(1R)-1-(3,5-dichloro-4-pyridyl)ethoxy]-1H-indazol-3-yl]-3-fluoro-2-pyridyl]-3-(methylsulfonyl-methyl)azetidin-3-amine], the Kd on FGFR1 (setting [1]) and at FGFR3 (setting [1]) was 1 to 50 nM in each case.
Regarding `CCC(C)C1(N)CN(c2ncc(-c3n[nH]c4ccc(O[C@H](C)c5c(Cl)cncc5Cl)cc34)cc2F)C1` (stereo partly drawn) [Example 280, 1-[5-[5-[(1R)-1-(3,5-dichloro-4-pyridyl)ethoxy]-1H-indazol-3-yl]-3-fluoro-2-pyridyl]-3-sec-butyl-azetidin-3-amine], the Kd on FGFR1 and on FGFR3 was 1 to 50 nM in each case.
Regarding `C[C@@H](O)CC1(N)CN(c2ccc(-c3n[nH]c4ccc(O[C@H](C)c5c(Cl)cncc5Cl)cc34)nn2)C1` [Example 374, (R)-1-(3-amino-1-(6-(5-((R)-1-(3,5-dichloropyridin-4-yl)ethoxy)-1H-indazol-3-yl)pyridazin-3-yl)azetidin-3-yl)propan-2-ol], the Kd on FGFR1 and at FGFR3 was 1 to 50 nM each time.
`C[C@@H](Oc1ccc2[nH]nc(-c3cnc(N4CC(N)(CC(F)F)C4)c(F)c3)c2c1)c1c(Cl)cncc1Cl` [Example 394, (R)-1-(5-(5-(1-(3,5-dichloropyridin-4-yl)ethoxy)-1H-indazol-3-yl)-3-fluoropyridin-2-yl)-3-(2,2-difluoro-ethyl)azetidin-3-amine]: the Kd on FGFR1 (setting [1]) and at FGFR3 (setting [1]) was 1 to 50 nM throughout.
Consider `CNC(=O)C1(N)CN(c2ncc(-c3n[nH]c4ccc(O[C@H](C)c5c(Cl)cncc5Cl)cc34)cc2F)C1` [Example 296, (R)-3-amino-1-(5-(5-(1-(3,5-dichloropyridin-4-yl)ethoxy)-1H-indazol-3-yl)-3-fluoropyridin-2-yl)-N-methylazetidine-3-carboxamide], for which the Kd at FGFR1 and at FGFR3 was 1 to 50 nM each time.
For `C[C@@H](Oc1ccc2[nH]nc(-c3cnc(N4CC[C@](N)(c5ccnn5C)C4)c(F)c3)c2c1)c1c(Cl)cncc1Cl` [Example 404, (R)-1-(5-(5-((R)-1-(3,5-dichloropyridin-4-yl)ethoxy)-1H-indazol-3-yl)-3-fluoropyridin-2-yl)-3-(1-methyl-1H-pyrazol-5-yl)pyrrolidin-3-amine], the Kd at FGFR1 (setting [1]) and on FGFR3 (setting [1]) was 1 to 50 nM throughout.
For `C[C@@H](Oc1ccc2[nH]nc(-c3cnc(N4CCC(N)(CS(C)(=O)=O)CC4)c(F)c3)c2c1)c1c(Cl)cncc1Cl` [Example 375, (R)-1-(5-(5-(1-(3,5-dichloropyridin-4-yl)ethoxy)-1H-indazol-3-yl)-3-fluoropyridin-2-yl)-4-((methylsulfonyl)methyl)piperidin-4-amine], the Kd at FGFR1 and on FGFR3 was 1 to 50 nM throughout.
Regarding `COc1cc2[nH]nc(-c3ccc(N4CC(C)(N)C4)nn3)c2cc1O[C@H](C)c1c(Cl)cncc1Cl` [Example 393, (R)-1-(6-(5-(1-(3,5-dichloropyridin-4-yl)ethoxy)-6-methoxy-1H-indazol-3-yl)pyridazin-3-yl)-3-methylazetidin-3-amine], the Kd at FGFR1 (setting [1]) and on FGFR3 (setting [1]) was 1 to 50 nM throughout.
`C[C@@H](Oc1ccc2[nH]nc(-c3ccc(N4CC(C)(N)C4)nn3)c2c1)c1c(Cl)cncc1Cl` [Example 286]: the Kd on FGFR1 and on FGFR3 was 1 to 50 nM throughout.
`COc1cc2[nH]nc(-c3ccc(N4CCC(C)(N)CC4)nc3)c2cc1O[C@H](C)c1c(Cl)cncc1Cl` [Example 382, (R)-1-(5-(5-(1-(3,5-dichloropyridin-4-yl)ethoxy)-6-methoxy-1H-indazol-3-yl)pyridin-2-yl)-4-methylpiperidin-4-amine]: the Kd at FGFR1 (setting [1]) and on FGFR3 (setting [1]) was 1 to 50 nM each time.
In the case of `CNC(=O)CNC1(C)CN(c2ncc(-c3n[nH]c4ccc(O[C@H](C)c5c(Cl)cncc5Cl)cc34)cc2F)C1` [Example 399, (R)-2-((1-(5-(5-(1-(3,5-dichloropyridin-4-yl)ethoxy)-1H-indazol-3-yl)-3-fluoropyridin-2-yl)-3-methylazetidin-3-yl)amino)-N-methylacetamide], the dissociation constant (Kd) at FGFR1 (setting [1]) and on FGFR3 (setting [1]) was 1 to 50 nM in each case.
As to `C[C@@H](Oc1ccc2[nH]nc(-c3cnc(N4CC[C@@](N)(c5ccnn5C)C4)c(F)c3)c2c1)c1c(Cl)cncc1Cl` [Example 405, (S)-1-(5-(5-((R)-1-(3,5-dichloropyridin-4-yl)ethoxy)-1H-indazol-3-yl)-3-fluoropyridin-2-yl)-3-(1-methyl-1H-pyrazol-5-yl)pyrrolidin-3-amine], the Kd at FGFR1 (setting [1]) and on FGFR3 (setting [1]) was 1 to 50 nM in each case.
For the molecule `C[C@@H](Oc1ccc2[nH]nc(-c3cnc(N4CC(CC#N)(N(C)C)C4)c(F)c3)c2c1)c1c(Cl)cncc1Cl` [Example 252, (R)-2-(1-(5-(5-(1-(3,5-dichloropyridin-4-yl)ethoxy)-1H-indazol-3-yl)-3-fluoropyridin-2-yl)-3-(dimethyl-amino)azeti-din-3-yl)acetonitrile], the Kd on FGFR1 and at FGFR3 was 1 to 50 nM in each case.
As to `C[C@@H](Oc1ccc2[nH]nc(-c3cnc(N4CC[C@@](C)(N)C4)c(F)c3)c2c1)c1c(Cl)cncc1Cl` [Example 408, (R)-1-(5-(5-((R)-1-(3,5-dichloropyridin-4-yl)ethoxy)-1H-indazol-3-yl)-3-fluoropyridin-2-yl)-3-methylpyrrolidin-3-amine], the Kd on FGFR1 (setting [1]) lay within 1 to 50 nM.

The values are drawn from patent US20250368666A1, “INDAZOLE COMPOUNDS” (TYRA BIOSCIENCES, INC., priority 2022, published 2025).
